SMILES strings stand for the structures.

The text below walks through data of ChEMBL document CHEMBL3507680, “University of Dundee, Gates Library screen for HepG2 cell viability”.

The data set in a line: Human HepG2 cell viability assay in 384 well format. The data set is classed as toxicity, cell-based. Also noted: dose 125 nL, time 70.5 hour; concentration not given beside the values. The following applies: HepG2 cells, read-out: Inhibition.
For `O=C(NCc1cccnc1)C1=NOC2(CCN(C3CCOCC3)C2)C1` (stereo not drawn), the cytotoxicity at 70.5 h was -11.3%.
Regarding `CC(C)N(C)C(=O)C1=NOC2(CCN(C(=O)NCc3cccnc3)C2)C1` (stereo not drawn), the cytotoxicity at 70.5 h was -9.91%.
For `CCOCC1CN(C(=O)c2ccoc2)Cc2nn(C)cc21` (stereo not drawn) the value was -6.29%.
In the case of `O=C([C@@H]1CC[C@@H]2[C@@H](CCN2Cc2ccncc2)O1)N1CCCCO1`, the cytotoxicity at 70.5 h is -6.89%.
Turning to `CNC(=O)c1cc2c(nc1NC(C)C)CCNCC2`, the cytotoxicity at 70.5 h amounted to 6.54%.
The result for `CCOCc1ncn2c1CN(S(=O)(=O)c1ccc(F)cc1)CC2` reads 9.27%; that for `COCc1ncn2c1CN(S(=O)(=O)c1cccc(OC)c1)CC2`, 8.77%; that for `c1ccc(-c2ncc3c(n2)C2(CCN(c4ncccn4)C2)COC3)cc1` (stereo not drawn), -2.35%.
The result for `O=C(Nc1ccccc1)C1CN(Cc2nccs2)CC12CCOCC2` (stereo not drawn) reads 10%.
For `O=C(c1ncccn1)N1C[C@@H]2COC[C@]2(c2nnc(C3CC3)o2)C1` the value was 9.47%.
As to `COCc1ncn2c1CN(S(=O)(=O)c1cccc(F)c1)CC2`, the cytotoxicity at 70.5 h was -8.14%.
As to `COCCO[C@@H]1C[C@H]2CN(C(=O)c3cccnc3)CCN2C1`, the cytotoxicity at 70.5 h is -6.81%.
Turning to `CS(=O)(=O)N1CCC2(COCc3cnc(-c4ccccc4)nc32)C1` (stereo not drawn), the cytotoxicity at 70.5 h is -10.2%.
The result for `Cc1noc(C)c1CN1CC2(CCN(C(=O)c3cccn3C)C2)CC1=O` (stereo not drawn) reads -8.3%; that for `Cc1ncnc2c1CCN(C(=O)c1cccnc1)CC2`, -6.81%; that for `Cc1ccc(CN2CCC3(CC(C(=O)NCC4CC4)=NO3)C2)s1` (stereo not drawn), -8.89%.
Turning to `CCN(CC)CC1CN(Cc2c(C)noc2C)Cc2nccn2C1` (stereo not drawn), the cytotoxicity at 70.5 h was -4.28%.
The result for `Cc1noc(C)c1CN1CC2(CCN(C(=O)c3ccc[nH]3)C2)CC1=O` (stereo not drawn) reads -6.16%.
For `O=C(NCC1CC1)C1=NOC2(CCN(Cc3ccsc3)C2)C1` (stereo not drawn) the value was -7.31%; for `O=C(CC1CC1)N1CCC2(CC1)CC(Oc1ccccc1)CO2` (stereo not drawn), -4.92%; for `N#Cc1cccc(CN2CCC3(CC(C(=O)NCC4CC4)=NO3)C2)c1` (stereo not drawn), -4.48%.
On to `Cc1noc(C)c1C(=O)N1CCC2(CC1)CC(Oc1ccccc1)CO2` (stereo not drawn), for which the cytotoxicity at 70.5 h is -3.84%.
For `Cc1ccc(C(=O)N2CCc3ncnc(C)c3CC2)cn1`, the cytotoxicity at 70.5 h was -4.87%.
For the compound `CS(=O)(=O)Nc1nn(Cc2ccc(F)cc2)cc1Br`, the cytotoxicity at 70.5 h is -3.65%.
`CCOc1cccc(C(=O)Nc2ccn(CC)n2)c1`: the cytotoxicity at 70.5 h is -19.9%.
Consider `O=C(CCn1cc(Cl)cn1)Nc1ncccn1`, for which the cytotoxicity at 70.5 h was -4.36%.
In the case of `CCCN1CCN(C(=O)c2ccn(COc3ccc(F)cc3)n2)CC1`, the cytotoxicity at 70.5 h is -3.36%.
The result for `O=C(c1ccn(COc2ccc(F)cc2)n1)N1CCCCCC1` reads -3.63%.
For `Cc1cc(NC(=O)C(C)Oc2ccc3c(c2)OCO3)no1` (stereo not drawn) the value was -6.37%; for `Cc1nn(CC(=O)Nc2ccon2)c(C)c1Br`, -11.8%.
For `CCC/N=c1/c(NC(=O)NCCCOC)c(O)oc2ccccc12` the value was 29.3%; for `CCn1nccc1CNC(=O)CCC1CCCC1`, 18.7%; for `CCCn1nccc1C(=O)Nc1ncc(C)s1`, -11.3%.
As for `CCN(CC)CCCNC(=O)c1nn(CC)cc1Cl`, the cytotoxicity at 70.5 h came to 2.52%.
The result for `CCN(CC)CCCNC(=O)C(C)n1cc(Br)cn1` (stereo not drawn) reads -1.37%; that for `O=C(NCc1cncc2c1CCN(Cc1ccc(F)cc1)C2)C1CC1`, -8.1%.
As to `O=C(NCc1cncc2c1CCN(Cc1ccoc1)C2)C1CC1`, the cytotoxicity at 70.5 h is -0.887%.
For `O=C(NCc1cncc2c1CCN(CC1CCOC1)C2)c1ccno1` (stereo not drawn) the value was -6.93%; for `Cc1ccc(N2CCN(Cc3ccccc3)C3(CCNCC3)C2=O)cn1`, -4.83%.
The result for `CC(C)NC(=O)C1c2c(ncn2C(C)C)CCN1Cc1ccccc1` (stereo not drawn) reads -3.52%.
Regarding `O=C([C@H]1CC[C@@H]2[C@@H](CCN2Cc2ccsc2)O1)N1CCOCC1`, the cytotoxicity at 70.5 h was -6.53%.
The result for `c1cnc(N2CCCC3(COCCN(CC4CC4)C3)C2)nc1` (stereo not drawn) reads -10%; that for `Cn1cc(C(=O)N[C@H]2CN(Cc3nccs3)[C@@H]3CCCO[C@H]23)cn1`, -8.57%; that for `O=C([C@H]1CC[C@@H]2[C@@H](CCN2Cc2ccc(F)cc2)O1)N1CCCO1`, -9.2%.
For `Cn1cccc1C(=O)N1CCO[C@H]2[C@H](OCc3cccnc3)CC[C@@H]21` the value was -7.88%; for `O=C(NCc1cccs1)c1nc2c(o1)CN(C(=O)c1cccnc1)C2`, 7.5%.
With `CCN(C)c1ncnc2c1CCN(C(=O)c1ccoc1C)CC2`, the cytotoxicity at 70.5 h is -10.9%.
As for `CCN(C)c1ncnc2c1CCN(C(=O)c1ccsc1)CC2`, the cytotoxicity at 70.5 h is -0.977%.
On to `CC(C)Nc1nc2c(cc1C(=O)NCC1CC1)CCN(S(C)(=O)=O)CC2`, for which the cytotoxicity at 70.5 h is -6.91%.
Take `O=C(NCc1ccco1)[C@H]1CC[C@@H]2[C@@H](CCN2Cc2nccs2)O1`: the cytotoxicity at 70.5 h is -4.65%.
Consider `O=C(c1cnccn1)N1CCN2C[C@H](OCc3ccccc3F)C[C@H]2C1`, for which the cytotoxicity at 70.5 h is -6.71%.
`O=C(NCc1ccco1)[C@@H]1CC[C@@H]2[C@@H](CCN2Cc2ccc(F)cc2)O1`: the cytotoxicity at 70.5 h is -5.82%.
In the case of `O=C(Nc1ccccc1)C1CN(Cc2ccco2)CC12CCOCC2` (stereo not drawn), the cytotoxicity at 70.5 h was -10.6%.
For the compound `O=C(Nc1ccccc1)C1CN(Cc2ccsc2)CC12CCOCC2` (stereo not drawn), the cytotoxicity at 70.5 h was -18.9%.
The result for `COCc1ncn2c1CN(S(=O)(=O)Cc1ccc(C)cc1)CC2` reads -10.2%; that for `COCC1CN(Cc2csc(C)n2)Cc2nccn2C1` (stereo not drawn), 2.98%; that for `CS(=O)(=O)N1CCOCC2(CN(Cc3ccc(F)cc3)CCO2)C1` (stereo not drawn), -3.17%.
Turning to `CN(C)c1ncc2c(n1)C1(CCN(Cc3ccccc3F)C1)COC2` (stereo not drawn), the cytotoxicity at 70.5 h is -7.03%.
For `CCn1ncc2c1C(COC)CN(S(=O)(=O)N(C)C)C2` (stereo not drawn) the value was -10.2%; for `COc1ccc(CC(=O)N2Cc3nccn3CC(CN(C)C)C2)cc1` (stereo not drawn), 20.5%; for `Cc1ccc(CN2CCC3(CC2)CN(c2ccccc2)C(=O)CO3)o1`, 23.7%.
Consider `CN1CCN(C(=O)[C@H]2CC[C@@H]3[C@@H](CCN3Cc3ccsc3)O2)CC1`, for which the cytotoxicity at 70.5 h was -6.96%.
For `CC(C)Nc1nc2c(cc1C(=O)NCC1CC1)CCN(CC1CC1)CC2` the value was 25.7%; for `CN(Cc1ccco1)C[C@@H]1OC[C@H]2CN(Cc3nccs3)CC[C@H]21`, 4.46%; for `CN(C)CC(=O)N1Cc2nnn(C)c2C(COCc2ccccn2)C1` (stereo not drawn), 9.45%.
The result for `c1cncc(CN2CCCC3(COCCN(c4cnccn4)C3)C2)c1` (stereo not drawn) reads -5.18%; that for `Cc1ncccc1NC(=O)[C@@H]1CC[C@@H]2[C@@H](CCN2Cc2cnn(C)c2)O1`, 13.5%; that for `CN(Cc1ccco1)C[C@H]1OC[C@@H]2CCN(Cc3ccccn3)C[C@@H]21`, -8.48%.
